Experimental data as given in patent US20250136596A1, “MEMBRANE-ASSOCIATED TYROSINE- AND THREONINE-SPECIFIC CDC2-INHIBITORY KINASE (PKMYT1) INHIBITORS AND USES THEREOF” (Insilico Medicine IP Limited, priority 2022, published 2025).

target: PKMYT1 (Homo sapiens (Human), UniProt Q99640); assay: PKMYT1 HTRF Assay; type: binding; conditions: Tracer 178, GST-Tb; compound 10 μM to 0.5 nM; read-out: MYT1 HTRF IC50
Procedure: Example A: PKMYT1 HTRF Assay
Compound serial dilution is performed by Echo, and the final concentrations vary from 10 μM to 0.5 nM. This was filled by the addition of 5 μL/well of Enzyme solution to the assay plate containing the compound. The plate was centrifuged at 1000 rpm for 1 minute, and incubate 15 minutes at 25 ? . Then 5 μL/well of tracer solution (Tracer 178) was added to initiate the reaction, and incubate for 60 minutes at 25° C. Next 5 μL GST-Tb was added into the assay plate, the plate was centrifuged at 1000 rpm for 1 minute, and incubate for 15 minutes at 25 ? . The assay plate was read on Envision.

Sequence of PKMYT1 (Q99640 whole entry): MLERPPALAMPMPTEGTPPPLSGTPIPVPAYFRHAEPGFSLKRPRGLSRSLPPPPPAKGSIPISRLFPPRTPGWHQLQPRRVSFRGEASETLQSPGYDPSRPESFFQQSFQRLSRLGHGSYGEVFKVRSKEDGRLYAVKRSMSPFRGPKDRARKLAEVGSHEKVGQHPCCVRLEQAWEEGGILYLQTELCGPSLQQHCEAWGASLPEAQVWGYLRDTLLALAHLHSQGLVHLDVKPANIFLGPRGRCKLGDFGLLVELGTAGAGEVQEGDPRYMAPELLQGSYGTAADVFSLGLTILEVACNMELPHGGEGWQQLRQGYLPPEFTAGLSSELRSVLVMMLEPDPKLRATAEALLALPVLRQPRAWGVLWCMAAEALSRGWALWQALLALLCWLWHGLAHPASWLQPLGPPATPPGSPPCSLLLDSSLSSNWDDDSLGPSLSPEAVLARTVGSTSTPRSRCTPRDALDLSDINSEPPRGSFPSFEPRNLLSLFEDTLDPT

Structure (SMILES) | IC50 [nM]
Cc1ccc(O)c(C)c1-c1cnc2[nH]c(-c3cnc(N4CC[S@SP1](=O)(=O)CC4)nc3)c(Cl)c2c1C#N [Example 84, (R)-3-chloro-2-(2-(1,1-dioxidothiomorpholino)pyrimidin-5-yl)-5-(3-hydroxy-2,6-dimethylphenyl)-1H-pyrrolo[2,3-b]pyridine-4-carbonitrile] | < 10
Cc1ccc(O)c(C)c1-c1cnc2[nH]c(-c3ccc(N4CCN(C)CC4)nc3C)nc2c1C [Example 2, 2,4-dimethyl-3-(7-methyl-2-(2-methyl-6-(4-methylpiperazin-1-yl)pyridin-3-yl)-3H-imidazo[4,5-b]pyridin-6-yl)phenol] | 500 to 5000
Cc1ccc(O)c(C)c1-c1cnc2[nH]c(-c3cnc(OCC(O)CO)nc3)cc2c1C#N [Example 83, (5R)-2-(2-(2,3-dihydroxypropoxy)pyrimidin-5-yl)-5-(3-hydroxy-2,6-dimethylphenyl)-1H-pyrrolo[2,3-b]pyridine-4-carbonitrile] | < 10
Cc1ccc(O)c(C)c1-c1cnc2[nH]c(-c3cnc(NCCO)nc3)cc2c1C#N [Example 101, (R)-5-(3-hydroxy-2,6-dimethylphenyl)-2-(2-((2-hydroxyethyl)amino)pyrimidin-5-yl)-1H-pyrrolo[2,3-b]pyridine-4-carbonitrile] | < 10
Cc1ccc(O)c(C)c1-c1cnc2[nH]c(-c3cnc(N4CCOC4=O)nc3)c(Cl)c2c1C#N [Example 82, (R)-3-chloro-5-(3-hydroxy-2,6-dimethylphenyl)-2-(2-(2-oxooxazolidin-3-yl)pyrimidin-5-yl)-1H-pyrrolo[2,3-b]pyridine-4-carbonitrile] | < 10
Cc1ccc(O)c(C)c1-c1cnc2[nH]c(-c3cnc(N4CCC(C(=O)O)C4)nc3)c(Cl)c2c1C#N [Example 72, (R)-1-(5-((R)-3-chloro-4-cyano-5-(3-hydroxy-2,6-dimethylphenyl)-1H-pyrrolo[2,3-b]pyridin-2-yl)pyrimidin-2-yl)pyrrolidine-3-carboxylic acid] | < 10
Cc1ncc(-c2cc3c(C)c(-c4c(C)ccc(O)c4C)cnc3[nH]2)cn1 [Example 26, (R)-2,4-dimethyl-3-(4-methyl-2-(2-methylpyrimidin-5-yl)-1H-pyrrolo[2,3-b]pyridin-5-yl)phenol] | < 10
Cc1ccc(O)c(C)c1-c1cnc2[nH]c(-c3cnc(NC4CC4)nc3)c(Cl)c2c1C#N [Example 48, (R)-3-chloro-2-(2-(cyclopropylamino)pyrimidin-5-yl)-5-(3-hydroxy-2,6-dimethylphenyl)-1H-pyrrolo[2,3-b]pyridine-4-carbonitrile] | < 10
Cc1ccc(O)c(C)c1-c1cnc2[nH]c(-c3cnc(C4CC4)nc3)c(Cl)c2c1C#N [Example 57, (S)-3-chloro-2-(2-cyclopropylpyrimidin-5-yl)-5-(3-hydroxy-2,6-dimethylphenyl)-1H-pyrrolo[2,3-b]pyridine-4-carbonitrile] | < 10
Cc1ccc(O)c(C)c1-c1cnc2[nH]c(-c3cnc(N)nc3)c(Cl)c2c1C#N [Example 40, (R)-2-(2-aminopyrimidin-5-yl)-3-chloro-5-(3-hydroxy-2,6-dimethylphenyl)-1H-pyrrolo[2,3-b]pyridine-4-carbonitrile] | < 10
Cc1ccc(O)c(C)c1-c1cnc2[nH]c(-c3cnc(N)nc3)nc2c1C#N [Example 116, (S)-2-(2-aminopyrimidin-5-yl)-6-(3-hydroxy-2,6-dimethylphenyl)-3H-imidazo[4,5-b]pyridine-7-carbonitrile] | < 10
Cc1ncc(-c2cc3nc(-c4c(C)ccc(O)c4C)cnc3[nH]2)cn1 [Example 15, 2,4-dimethyl-3-(6-(2-methylpyrimidin-5-yl)-5H-pyrrolo[2,3-b]pyrazin-2-yl)phenol] | 10 to 50
Cc1ncc(-c2[nH]c3ncc(-c4c(C)ccc(O)c4C)c(C#N)c3c2Cl)cn1 (atropisomer, axis not shown) [Example 33, (S)-3-chloro-5-(3-hydroxy-2,6-dimethylphenyl)-2-(2-methylpyrimidin-5-yl)-1H-pyrrolo[2,3-b]pyridine-4-carbonitrile] | < 10
COc1cncc(-c2cc3cc(-c4c(C)ccc(O)c4C)cnc3[nH]2)c1 [Example 8, 3-(2-(5-methoxypyridin-3-yl)-1H-pyrrolo[2,3-b]pyridin-5-yl)-2,4-dimethylphenol] | 10 to 50
Cc1ccc(O)c(C)c1-c1cnc2[nH]c(-c3cnc(OC4COC4)nc3)cc2c1C#N [Example 53, (S)-5-(3-hydroxy-2,6-dimethylphenyl)-2-(2-(oxetan-3-yloxy)pyrimidin-5-yl)-1H-pyrrolo[2,3-b]pyridine-4-carbonitrile] | < 10
Cc1ccc(O)c(C)c1-c1cnc2[nH]c(-c3cnc(N4CC(O)C4)nc3)cc2c1C#N [Example 45, (R)-5-(3-hydroxy-2,6-dimethylphenyl)-2-(2-(3-hydroxyazetidin-1-yl)pyrimidin-5-yl)-1H-pyrrolo[2,3-b]pyridine-4-carbonitrile] | < 10

Structure (SMILES) | IC50 [nM]
Cc1ccc(O)c(C)c1-c1cnc2[nH]c(-c3cnc[nH]3)cc2c1C#N [Example 125, (S)-5-(3-hydroxy-2,6-dimethylphenyl)-2-(1H-imidazol-5-yl)-1H-pyrrolo[2,3-b]pyridine-4-carbonitrile] | < 10
Cc1ncc(-c2[nH]c3ncc(-c4c(C)ccc(O)c4C)nc3c2Cl)cn1 [Example 16, 3-(7-chloro-6-(2-methylpyrimidin-5-y1)-5H-pyrrolo[2,3-b]pyrazin-2-yl)-2,4-dimethylphenol] | < 10
Cc1ccc(O)c(C)c1-c1cnc2[nH]c(-c3cnc(N)c(C#N)c3)cc2c1C#N [Example 130, (S)-2-(6-amino-5-cyanopyridin-3-yl)-5-(3-hydroxy-2,6-dimethylphenyl)-1H-pyrrolo[2,3-b]pyridine-4-carbonitrile] | < 10
Cc1ncc(-c2[nH]c3ncc(-c4c(C)ccc(O)c4C)nc3c2C#CC(C)(C)O)cn1 [Example 20, 3-(7-(3-hydroxy-3-methylbut-1-yn-1-yl)-6-(2-methylpyrimidin-5-yl)-5H-pyrrolo[2,3-b]pyrazin-2-yl)-2,4-dimethylphenol] | < 10
Cc1ccc(O)c(C)c1-c1cnc2[nH]c(-c3cnn(C)c(=O)c3)c(Cl)c2c1C#N [Example 66, (R)-3-chloro-5-(3-hydroxy-2,6-dimethylphenyl)-2-(1-methyl-6-oxo-1,6-dihydropyridazin-4-yl)-1H-pyrrolo[2,3-b]pyridine-4-carbonitrile] | < 10
Cc1ncc(-c2[nH]c3ncc(-c4c(C)ccc(O)c4C)c(C#N)c3c2Cl)c(C)n1 [Example 78, (R)-3-chloro-2-(2,4-dimethylpyrimidin-5-yl)-5-(3-hydroxy-2,6-dimethylphenyl)-1H-pyrrolo[2,3-b]pyridine-4-carbonitrile] | 50 to 500
Cc1ccc(O)c(C)c1-c1cnc2[nH]c(-c3cnc(N4CC(C)(O)C4)nc3)cc2c1Cl [Example 25, (S)-1-(5-(4-chloro-5-(3-hydroxy-2,6-dimethylphenyl)-1H-pyrrolo[2,3-b]pyridin-2-yl)pyrimidin-2-yl)-3-methylazetidin-3-ol] | < 10
Cc1ccc(O)c(C)c1-c1cnc2[nH]c(-c3ccc(N4CCN(C)CC4)nc3)c(C)c2c1 [Example 3, 2,4-dimethyl-3-(3-methyl-2-(6-(4-methylpiperazin-1-yl)pyridin-3-yl)-1H-pyrrolo[2,3-b]pyridin-5-yl)phenol] | 50 to 500
Cc1ncc(-c2cc3c(C(N)=O)c(-c4c(C)ccc(O)c4C)cnc3[nH]2)cn1 [Example 34, 5-(3-hydroxy-2,6-dimethylphenyl)-2-(2-methylpyrimidin-5-yl)-1H-pyrrolo[2,3-b]pyridine-4-carboxamide] | 50 to 500
Cc1ccc(O)c(C)c1-c1cnc2[nH]c(-n3ccnc3)cc2c1C#N [Example 122, (S)-5-(3-hydroxy-2,6-dimethylphenyl)-2-(1H-imidazol-1-yl)-1H-pyrrolo[2,3-b]pyridine-4-carbonitrile] | < 10
Cc1ccc(O)c(C)c1-c1cnc2[nH]c(-c3cnc(C(C)(C)O)nc3)cc2c1C#N [Example 86, 5-(3-hydroxy-2,6-dimethylphenyl)-2-(2-(2-hydroxypropan-2-yl)pyrimidin-5-yl)-1H-pyrrolo[2,3-b]pyridine-4-carbonitrile] | < 10
Cc1ncc(-c2cc3cc(-c4c(C)ccc(O)c4C)cnc3[nH]2)cn1 [Example 7, 2,4-dimethyl-3-(2-(2-methylpyrimidin-5-yl)-1H-pyrrolo[2,3-b]pyridin-5-yl)phenol] | 10 to 50
Cc1ccc(-c2cc3c(Cl)c(-c4c(C)ccc(O)c4C)cnc3[nH]2)cn1 [Example 10, 3-(4-chloro-2-(6-methylpyridin-3-yl)-1H-pyrrolo[2,3-b]pyridin-5-yl)-2,4-dimethylphenol] | < 10
Cc1ccc(O)c(C)c1-c1cnc2[nH]c(-c3cncc(N4CCC(O)CC4)c3)cc2c1C#N [Example 89, 5-(3-hydroxy-2,6-dimethylphenyl)-2-(5-(4-hydroxypiperidin-1-yl)pyridin-3-yl)-1H-pyrrolo[2,3-b]pyridine-4-carbonitrile] | < 10
Cc1ccc(O)c(C)c1-c1cnc2[nH]c(-c3cnn(C4CCOCC4)c(=O)c3)c(Cl)c2c1C#N [Example 68, (R)-3-chloro-5-(3-hydroxy-2,6-dimethylphenyl)-2-(6-oxo-1-(tetrahydro-2H-pyran-4-yl)-1,6-dihydropyridazin-4-yl)-1H-pyrrolo[2,3-b]pyridine-4-carbonitrile] | < 10
Cc1ccc(O)c(C)c1-c1cnc2[nH]c(-c3cnc(CN)nc3)cc2c1C#N [Example 129, (S)-2-(2-(aminomethyl)pyrimidin-5-yl)-5-(3-hydroxy-2,6-dimethylphenyl)-1H-pyrrolo[2,3-b]pyridine-4-carbonitrile] | < 10
